# Measurements taken from US8455475B2 (Gruenenthal GmbH, priority 2009, dated 2013).
# Target: T1, rat B1R (bradykinin receptor 1) (Rattus norvegicus, UniProt P97583)
# T1 construct: expressed in transfected cells; host or cells: CHO K1 cells
# T1 sequence (P97583 1-337): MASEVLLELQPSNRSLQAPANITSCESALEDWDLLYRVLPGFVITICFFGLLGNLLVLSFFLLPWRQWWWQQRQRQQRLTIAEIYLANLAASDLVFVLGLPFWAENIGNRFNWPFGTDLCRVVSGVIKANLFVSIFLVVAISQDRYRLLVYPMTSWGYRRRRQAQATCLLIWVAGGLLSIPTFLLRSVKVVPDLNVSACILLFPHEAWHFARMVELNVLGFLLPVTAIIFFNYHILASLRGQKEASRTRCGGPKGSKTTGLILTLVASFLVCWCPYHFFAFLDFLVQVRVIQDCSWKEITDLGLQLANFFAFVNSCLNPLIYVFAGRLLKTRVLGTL
# Assay: FLIPR Ca2+ assay (Fluo-4) on CHO K1 cells stably transfected with the B1R gene of the rat (rB1R cells): % inhibition at 10 μM / IC50, agonist Des-Arg9-bradykinin
# Format: cell-based
# Conditions: CHO-K1, rat B1R
# Method: The agonistic or antagonistic action of substances can be quantified on the bradykinin receptor 1 (B1R) of the human and rat species with ectopically expressing cell lines (CHO K1 cells) and with the aid of a Ca^2+-sensitive dyestuff (Fluo-4) in a fluorescent imaging plate reader (FLIPR). The figure in % activation is based on the Ca^2+ signal after addition of Lys-Des-Arg^9-bradykinin (0.5 nM) or Des-Arg^9-bradykinin (100 nM). Antagonists lead to a suppression of the Ca^2+ inflow after addition of the agonist. % inhibition compared with the maximum achievable inhibition is stated.
# The agonistic or antagonistic action of substances can be determined on the bradykinin receptor 1 (B1R) of the human and rat species with the following assay. In accordance with this assay, the Ca^2+ inflow through the channel is quantified with the aid of a Ca^2+-sensitive dyestuff (type Fluo-4, Molecular Probes Europe BV, Leiden, Holland) in a fluorescent imaging plate reader (FLIPR, Molecular Devices, Sunnyvale, USA).
# Chinese hamster ovary cells (CHO K1 cells) transfected stably with the human B1R gene (hB1R cells) or the B1R gene of the rat (rB1R cells) are used. For functional studies, these cells are plated out on black 96-well plates with a clear base (BD Biosciences, Heidelberg, Germany or Greiner, Frickenhausen, Germany) in a density of 20,000-35,000 cells/well. The cells are left overnight at 37° C. and 5% CO2 in culture medium (hB1R cells: Nutrient Mixture Ham's F12, Gibco Invitrogen GmbH, Karlsruhe, Germany or DMEM, Sigma-Aldrich, Taufkirchen, Germany; rB1R cells: D-MEM/F12, Gibco Invitrogen GmbH, Karlsruhe, Germany) with 10 vol. % FBS (foetal bovine serum, Gibco Invitrogen GmbH, Karlsruhe, Germany or PAN Biotech GmbH, Aidenbach, Germany). On the following day, the cells are loaded for 60 min at 37° C. with 2.13 μM Fluo-4 (Molecular Probes Europe BV, Leiden Holland) in HBSS buffer (Hank's buffered saline solution, Gibco Invitrogen GmbH, Karlsruhe, Germany) with 2.5 mM probenecid (Sigma-Aldrich, Taufkirchen, Germany) and 10 mM HEPES (Sigma-Aldrich, Taufkirchen, Germany). The plates are then washed 2× with HBSS buffer, and HBSS buffer which additionally contains 0.1% BSA (bovine serum albumin; Sigma-Aldrich, Taufkirchen, Germany), 5.6 mM glucose and 0.05% gelatine (Merck KGaA, Darmstadt, Germany) is added. After a further incubation of 20 minutes at room temperature, the plates are inserted into the FLIPR for the Ca^2+ measurement. Alternatively, the plates are washed with buffer A (15 mM HEPES, 80 mM NaCl, 5 mM KCl, 1.2 mM CaCl2, 0.7 mM MgSO4, 2 g/l glucose, 2.5 mM probenecid), buffer A is added and the plates are loaded with 2.5 μM Fluo-4 and 0.025% Pluronic F127 (Sigma-Aldrich, Taufkirchen, Germany). Thereafter, the cells are washed 2× with buffer A and incubated for 30 minutes at room temperature with buffer A, which additionally contains 0.05% BSA and 0.05% gelatine, and thereafter inserted into the FLIPR for the Ca^2+ measurement. The Ca^2+-dependent fluorescence is measured here before and after addition of substances (λex=488 nm, λem=540 nm). Quantification is by measurement of the highest fluorescence intensity (FC, fluorescence counts) over time.
# The FLIPR protocol consists of 2 additions of substance. Test substances (10 μM) are first pipetted on to the cells and the Ca^2+ inflow is compared with the control (hB1R: Lys-Des-Arg^9-bradykinin>=50 nM; rB1R: Des-Arg^9-bradykinin 10 μM). This gives the result in % activation based on the Ca^2+ signal after addition of Lys-Des-Arg^9-bradykinin (>=50 nM) or Des-Arg^9-bradykinin (10 μM). After incubation for 10-20 minutes, Lys-Des-Arg^9-bradykinin (hB1R) or Des-Arg^9-bradykinin (rB1R) in the concentration of the EC80 is applied and the inflow of Ca^2+ is likewise determined. Antagonists lead to a suppression of the Ca^2+ inflow. % inhibition compared with the maximum achievable inhibition is calculated.
# For determination of the IC50 value, the substances are added in various concentrations. […]
row,inhibition at 10 µM [%],Compound
1,59,"COc1ccc(CN2CCC3(CC2)CCN(C(=O)c2ccc4c(c2)C(NC(=O)c2cc(Cl)ccc2F)CC4)C3)cc1F (stereo not shown) [IND_CC-623, 5-Chloro-2-fluoro-N-[6-[8-[(3-fluoro-4-methoxy-phenyl)-methyl]-2,8-diazaspiro[4.5]decane-2-carbonyl]-2,3-dihydro-1H-inden-1-yl]-benzamide]"
2,78,"O=C(NC1CCc2ccc(C(=O)N3CCC4(CCN(CCCc5cccc(F)c5)CC4)CC3)cc21)c1cccc(Cl)c1Cl (stereo not shown) [IND_CC-759, 2,3-Dichloro-N-[6-[9-[3-(3-fluorophenyl)-propyl]-3,9-diazaspiro[5.5]undecane-3-carbonyl]-2,3-dihydro-1H-inden-1-yl]-benzamide]"
3,102,"CC(C)S(=O)(=O)N1CCC2(CCN(C(=O)c3ccc4c(c3)C(NC(=O)c3ccccc3Cl)CC4)CC2)CC1 (stereo not shown) [IND_CC-613, 2-Chloro-N-[6-[9-(isopropylsulfonyl)-3,9-diazaspiro[5.5]undecane-3-carbonyl]-2,3-dihydro-1H-inden-1-yl]-benzamide]"
4,66,"Cn1cncc1CN1CCC2(CC1)CCN(C(=O)c1ccc3c(c1)C(NC(=O)c1c(F)cccc1Cl)CC3)CC2 (stereo not shown) [IND_CC-796, 2-Chloro-6-fluoro-N-[6-[9-[(3-methyl-3H-imidazol-4-yl)-methyl]-3,9-diazaspiro[5.5]undecane-3-carbonyl]-2,3-dihydro-1H-inden-1-yl]-benzamide]"
5,69,"O=C(NC1CCc2ccc(C(=O)N3CCC4(CCN(Cc5ccc(F)cc5F)CC4)C3)cc21)c1cc(Cl)ccc1F (stereo not shown) [IND_CC-622, 5-Chloro-N-[6-[8-[(2,4-difluoro-phenyl)-methyl]-2,8-diazaspiro[4.5]decane-2-carbonyl]-2,3-dihydro-1H-inden-1-yl]-2-fluoro-benzamide]"
6,70,"CCC(CC)CN1CCC2(CC1)CCN(C(=O)c1ccc3c(c1)C(NC(=O)c1cccc(Cl)c1Cl)CC3)C2 (stereo not shown) [IND_CC-748, 2,3-Dichloro-N-[6-[8-(2-ethyl-butyl)-2,8-diazaspiro[4.5]decane-2-carbonyl]-2,3-dihydro-1H-inden-1-yl]-benzamide]"
7,96,"CC(C)(C)CC(=O)N1CCC2(CC1)CCN(C(=O)c1ccc3c(c1)C(NC(=O)c1ccccc1Cl)CC3)CC2 (stereo not shown) [IND_CC-598, 2-Chloro-N-[6-[9-(3,3-dimethyl-butanoyl)-3,9-diazaspiro[5.5]undecane-3-carbonyl]-2,3-dihydro-1H-inden-1-yl]-benzamide]"
8,78,"COc1ccc(CN2CCC3(CC2)CCN(C(=O)c2ccc4c(c2)C(NC(=O)c2cc(C(F)(F)F)ccc2Cl)CC4)CC3)cc1F (stereo not shown) [IND_CC-648, 2-Chloro-N-[6-[9-[(3-fluoro-4-methoxy-phenyl)-methyl]-3,9-diazaspiro[5.5]-undecane-3-carbonyl]-2,3-dihydro-1H-inden-1-yl]-5-(trifluoromethyl)benzamide]"

# Continued, compound first:
row,Compound,inhibition at 10 µM [%]
1,"N#Cc1ccccc1S(=O)(=O)N1CCC2(CCN(C(=O)c3ccc4c(c3)C(NC(=O)c3ccccc3Cl)CC4)C2)CC1 (stereo not shown) [IND_CC-501, 2-Chloro-N-[6-[8-[(2-cyano-phenyl)sulfonyl]-2,8-diazaspiro[4.5]decane-2-carbonyl]-2,3-dihydro-1H-inden-1-yl]-benzamide]",56
2,"CC1(C)CC(NC(=O)c2cc(Cl)ccc2C(F)(F)F)c2cc(C(=O)N3CCC4(CC3)CCN(c3ccncc3)CC4)ccc21 (stereo not shown) [IND_CC-315, 5-Chloro-N-[3,3-dimethyl-6-(3-pyridin-4-yl-3,9-diazaspiro[5.5]undecane-9-carbonyl)-1,2-dihydro-inden-1-yl]-2-(trifluoromethyl)-benzamide]",101
3,"O=C(NC1CCc2ccc(C(=O)N3CCC4(CCN(c5ccncc5)CC4)C3)cc21)c1cnccn1 (stereo not shown) [IND_CC-398, N-[6-(8-Pyridin-4-yl-2,8-diazaspiro[4.5]decane-2-carbonyl)-2,3-dihydro-1H-inden-1-yl]-pyrazine-2-carboxylic acid amide]",88
4,"O=C(NC1CCc2ccc(C(=O)N3CCC4(CC3)CCN(c3ccncc3)CC4)cc21)c1c(F)cccc1F (stereo not shown) [IND_CC-383, 2,6-Difluoro-N-[6-(9-pyridin-4-yl-3,9-diazaspiro[5.5]undecane-3-carbonyl)-2,3-dihydro-1H-inden-1-yl]-benzamide]",102
5,"Cc1c(CN2CCC3(CC2)CCN(C(=O)c2ccc4c(c2)C(NC(=O)c2ccccc2Cl)CC4)CC3)cnn1C (stereo not shown) [IND_CC-531, 2-Chloro-N-[6-[9-[(1,5-dimethyl-1H-pyrazol-4-yl)-methyl]-3,9-diazaspiro[5.5]undecane-3-carbonyl]-2,3-dihydro-1H-inden-1-yl]-benzamide]",81
6,"Cn1cccc1CN1CCC2(CC1)CCN(C(=O)c1ccc3c(c1)C(NC(=O)c1ccccc1Cl)CC3)CC2 (stereo not shown) [IND_CC-512, 2-Chloro-N-[6-[9-[(1-methyl-1H-pyrrol-2-yl)-methyl]-3,9-diazaspiro[5.5]undecane-3-carbonyl]-2,3-dihydro-1H-inden-1-yl]-benzamide]",92
7,"Cn1cncc1CN1CCC2(CC1)CCN(C(=O)c1ccc3c(c1)C(N(C(=O)c1ccccc1Cl)C1CC1)CC3)C2 (stereo not shown) [IND_CC-536, 2-Chloro-N-cyclopropyl-N-[6-[8-[(3-methyl-3H-imidazol-4-yl)-methyl]-2,8-diazaspiro[4.5]decane-2-carbonyl]-2,3-dihydro-1H-inden-1-yl]-benzamide]",54
8,"COc1cc(C)c(C(=O)NC2CCc3ccc(C(=O)N4CCC5(CCN(C(=O)c6cc(C(C)(C)C)nn6C)CC5)C4)cc32)c(C)c1 (stereo not shown) [IND_CC-580, N-[6-[8-(5-tert-Butyl-2-methyl-2H-pyrazole-3-carbonyl)-2,8-diazaspiro[4.5]decane-2-carbonyl]-2,3-dihydro-1H-inden-1-yl]-4-methoxy-2,6-dimethyl-benzamide]",81
9,"O=C(NC1CCc2ccc(C(=O)N3CCC4(CCN(C(=O)c5ccc(F)cc5F)CC4)C3)cc21)c1sccc1Cl (stereo not shown) [IND_CC-585, 3-Chloro-N-[6-[8-(2,4-difluoro-benzoyl)-2,8-diazaspiro[4.5]decane-2-carbonyl]-2,3-dihydro-1H-inden-1-yl]-thiophene-2-carboxylic acid amide]",52
10,"CC1(C)CC(NS(=O)(=O)c2c(Cl)cccc2Cl)c2cc(C(=O)N3CCC4(CC3)CCN(c3ccncc3)CC4)ccc21 (stereo not shown) [IND_CC-332, 2,6-Dichloro-N-[3,3-dimethyl-6-(3-pyridin-4-yl-3,9-diazaspiro[5.5]undecane-9-carbonyl)-1,2-dihydro-inden-1-yl]-benzenesulfonic acid amide]",97
11,"O=C(c1ccc2c(c1)C(NS(=O)(=O)c1c(Cl)cccc1Cl)CC2)N1CCC2(CC1)CCN(c1ccncc1)CC2 (stereo not shown) [IND_CC-322, 2,6-Dichloro-N-[6-(9-pyridin-4-yl-3,9-diazaspiro[5.5]undecane-3-carbonyl)-2,3-dihydro-1H-inden-1-yl]-benzenesulfonic acid amide]",102
